Measured values from US7632972B2, “Compounds and methods for treatment of cancer and modulation of programmed cell death for melanoma and other cancer cells” (The Board of Trustees of the University of Illionis, priority 2003, dated 2009).

How the values were obtained:
Type in all cases: cell-based, human
ACHN = assay: NCI 60 cell line screen (SRB), Renal Cancer
Text: (§1) The operation of this screen utilizes 60 different human tumor cell lines, representing leukemia, melanoma and cancers of the lung, colon, brain, ovary, breast, prostate, and kidney. The aim is to prioritize for further evaluation, synthetic compounds or natural product samples showing selective growth inhibition or cell killing of particular tumor cell lines. This screen is unique in that the complexity of a 60 cell line dose response produced by a given compound results in a biological response pattern which can be utilized in pattern recognition algorithms. Using these algorithms, it is possible to assign a putative mechanism of action to a test compound, or to determine that the response pattern is unique and not similar to that of any of the standard prototype compounds included in the NCl database (see DTP Overview tab). In addition, following characterization of various cellular molecular targets in the 60 cell lines, it may be possible to select compounds most likely to interact with a specific molecular target.
(§2) The human tumor cell lines of the cancer screening panel are grown in RPMI 1640 medium containing 5% fetal bovine serum and 2 mM L-glutamine. For a typical screening experiment, cells are inoculated into 96 well microtiter plates in 100 μL at plating densities ranging from 5,000 to 40,000 cells/well depending on the doubling time of individual cell lines. After cell inoculation, the microtiter plates are incubated at 37° C., 5% CO2, 95% air and 100% relative humidity for 24 h prior to addition of experimental drugs.
(§3) After 24 h, two plates of each cell line are fixed in situ with TCA, to represent a measurement of the cell population for each cell line at the time of drug addition (Tz). Experimental drugs are solubilized in dimethyl sulfoxide at 400-fold the desired final maximum test concentration and stored frozen prior to use. At the time of drug addition, an aliquot of frozen concentrate is thawed and diluted to twice the desired final maximum test concentration with complete medium containing 50 μg/ml gentamicin. Additional four, 10-fold or ½ log serial dilutions are made to provide a total of five drug concentrations plus control. Aliquots of 100 μl of these different drug dilutions are added to the appropriate microtiter wells already containing 100 μl of medium, resulting in the required final drug concentrations.
(§4) Following drug addition, the plates are incubated for an additional 48 h at 37° C., 5% CO2, 95% air, and 100% relative humidity. For adherent cells, the assay is terminated by the addition of cold TCA. Cells are fixed in situ by the gentle addition of 50 μl of cold 50% (w/v) TCA (final concentration, 10% TCA) and incubated for 60 minutes at 4° C. The supernatant is discarded, and the plates are washed five times with tap water and air dried. Sulforhodamine B (SRB) solution (100 μl) at 0.4% (w/v) in 1% acetic acid is added to each well, and plates are incubated for 10 minutes at room temperature. After staining, unbound dye is removed by washing five times with 1% acetic acid and the plates are air dried. Bound stain is subsequently solubilized with 10 mM trizma base, and the absorbance is read on an automated plate reader at a wavelength of 515 nm. For suspension cells, the methodology is the same except that the assay is terminated by fixing settled cells at the bottom of the wells by gently adding 50 μl of 80% TCA (final concentration, 16% TCA). Using the seven absorbance measurements [time zero, (Tz), control growth, (C), and test growth in the presence of drug at the five concentration levels (Ti)], the percentage growth is calculated at each of the drug concentrations levels. Percentage growth inhibition is calculated as: [(Ti−Tz)/(C−Tz)]×100 for concentrations for which Ti>/=Tz [(Ti−Tz)/Tz]×100 for concentrations for which Ti<Tz.
(§5) Three dose response parameters are calculated for each experimental agent. […]

SN12C = assay: NCI 60 cell line screen (SRB), Renal Cancer
Text: as §1, §2, §3, §4, §5

UO-31 = assay: NCI 60 cell line screen (SRB), Renal Cancer
Text: as §1, §2, §3, §4, §5

TK-10 = assay: NCI 60 cell line screen (SRB), Renal Cancer
Text: as §1, §2, §3, §4, §5

CAKI-1 = assay: NCI 60 cell line screen (SRB), Renal Cancer
Text: as §1, §2, §3, §4, §5

786-0 = assay: NCI 60 cell line screen (SRB), Renal Cancer
Text: as §1, §2, §3, §4, §5

SK-MEL-5 = assay: NCI 60 cell line screen (SRB), Melanoma
Text: as §1, §2, §3, §4, §5

SK-MEL-2 = assay: NCI 60 cell line screen (SRB), Melanoma
Text: as §1, §2, §3, §4, §5

SK-MEL-28 = assay: NCI 60 cell line screen (SRB), Melanoma
Text: as §1, §2, §3, §4, §5

[1] = read-out: LC50 (the source's name)

Q: For COc1cccc(CCNC(=O)CC(c2ccccc2)(c2ccccc2)c2ccccc2)c1 [Compound Z3], which GI50 (ACHN) is on record?
A: 7.84 µM

Q: And the TGI (ACHN)?
A: 9.48E−05

Q: And the “Percent Growth” value (ACHN; Log10 Concentration −4.0)?
A: −1%

Q: What about the “Percent Growth” value (ACHN; Log10 Concentration −5.0) of the same compound?
A: 45%

Q: And the “Percent Growth” value (ACHN; Log10 Concentration −6.0)?
A: 94%

Q: What about the “Percent Growth” value (ACHN; Log10 Concentration −7.0) of the same compound?
A: 112%

Q: And the “Percent Growth” value (ACHN; Log10 Concentration −8.0)?
A: 102%

Q: And the CC50 (ACHN; [1])?
A: > 100 µM

Q: What about the “Percent Growth” value (SN12C; Log10 Concentration −4.0) of the same compound?
A: 217%

Q: And the “Percent Growth” value (SN12C; Log10 Concentration −5.0)?
A: −14%

Q: And the “Percent Growth” value (SN12C; Log10 Concentration −6.0)?
A: 51%

Q: What about the “Percent Growth” value (SN12C; Log10 Concentration −7.0) of the same compound?
A: 84%

Q: And the “Percent Growth” value (SN12C; Log10 Concentration −8.0)?
A: 87%

Q: And the CC50 (SN12C; [1])?
A: > 100 µM

Q: What about the GI50 (UO-31; UO-31) of the same compound?
A: 4.75 µM

Q: And the TGI (UO-31; UO-31)?
A: >1.00E−04

Q: And the “Percent Growth” value (UO-31; UO-31, Log10 Concentration −4.0)?
A: 20%

Q: What about the “Percent Growth” value (UO-31; UO-31, Log10 Concentration −5.0) of the same compound?
A: 33%

Q: What about the “Percent Growth” value (UO-31; UO-31, Log10 Concentration −6.0) of the same compound?
A: 85%

Q: And the “Percent Growth” value (UO-31; UO-31, Log10 Concentration −7.0)?
A: 98%

Q: What about the “Percent Growth” value (UO-31; UO-31, Log10 Concentration −8.0) of the same compound?
A: 86%

Q: What about the CC50 (UO-31; UO-31, read-out: LC50 (the source's name)) of the same compound?
A: > 100 µM

Q: What about the GI50 (TK-10; TK-10) of the same compound?
A: 21.9 µM

Q: What about the TGI (TK-10; TK-10) of the same compound?
A: 8.22E−05

Q: And the “Percent Growth” value (TK-10; TK-10, Log10 Concentration −4.0)?
A: −7%

Q: What about the “Percent Growth” value (TK-10; TK-10, Log10 Concentration −5.0) of the same compound?
A: 80%

Q: And the “Percent Growth” value (TK-10; TK-10, Log10 Concentration −6.0)?
A: 133%

Q: What about the “Percent Growth” value (TK-10; TK-10, Log10 Concentration −7.0) of the same compound?
A: 128%

Q: What about the “Percent Growth” value (TK-10; TK-10, Log10 Concentration −8.0) of the same compound?
A: 117%

Q: What about the CC50 (TK-10; TK-10, read-out: LC50 (the source's name)) of the same compound?
A: > 100 µM

Q: What about the GI50 (CAKI-1; CAKI-1) of the same compound?
A: 3.16 µM

Q: And the TGI (CAKI-1; CAKI-1)?
A: 5.09E−05

Q: What about the “Percent Growth” value (CAKI-1; CAKI-1, Log10 Concentration −4.0) of the same compound?
A: −9%

Q: And the “Percent Growth” value (CAKI-1; CAKI-1, Log10 Concentration −5.0)?
A: 21%

Q: What about the “Percent Growth” value (CAKI-1; CAKI-1, Log10 Concentration −6.0) of the same compound?
A: 79%

Q: What about the “Percent Growth” value (CAKI-1; CAKI-1, Log10 Concentration −7.0) of the same compound?
A: 103%

Q: And the “Percent Growth” value (CAKI-1; CAKI-1, Log10 Concentration −8.0)?
A: 97%

Q: What about the CC50 (CAKI-1; CAKI-1, read-out: LC50 (the source's name)) of the same compound?
A: > 100 µM

Q: And the GI50 (786-0; 786-0)?
A: 10.6 µM

Q: And the TGI (786-0; 786-0)?
A: >1.00E−04

Q: What about the “Percent Growth” value (786-0; 786-0, Log10 Concentration −4.0) of the same compound?
A: 7%

Q: And the “Percent Growth” value (786-0; 786-0, Log10 Concentration −5.0)?
A: 51%

Q: And the “Percent Growth” value (786-0; 786-0, Log10 Concentration −6.0)?
A: 86%

Q: What about the “Percent Growth” value (786-0; 786-0, Log10 Concentration −7.0) of the same compound?
A: 98%

Q: What about the “Percent Growth” value (786-0; 786-0, Log10 Concentration −8.0) of the same compound?
A: 86%

Q: What about the CC50 (786-0; 786-0, read-out: LC50 (the source's name)) of the same compound?
A: > 100 µM

Q: And the GI50 (SK-MEL-5; SK-MEL-5)?
A: 4.84 µM

Q: And the TGI (SK-MEL-5; SK-MEL-5)?
A: >1.00E−04

Q: And the “Percent Growth” value (SK-MEL-5; SK-MEL-5, Log10 Concentration −4.0)?
A: 15%

Q: What about the “Percent Growth” value (SK-MEL-5; SK-MEL-5, Log10 Concentration −5.0) of the same compound?
A: 21%

Q: And the “Percent Growth” value (SK-MEL-5; SK-MEL-5, Log10 Concentration −6.0)?
A: 113%

Q: What about the “Percent Growth” value (SK-MEL-5; SK-MEL-5, Log10 Concentration −7.0) of the same compound?
A: 112%

Q: And the “Percent Growth” value (SK-MEL-5; SK-MEL-5, Log10 Concentration −8.0)?
A: 80%

Q: And the CC50 (SK-MEL-5; SK-MEL-5, read-out: LC50 (the source's name))?
A: > 100 µM

Q: What about the GI50 (SK-MEL-2; SK-MEL-2) of the same compound?
A: 4.41 µM

Q: What about the TGI (SK-MEL-2; SK-MEL-2) of the same compound?
A: >1.00E−04

Q: And the “Percent Growth” value (SK-MEL-2; SK-MEL-2, Log10 Concentration −4.0)?
A: 18%

Q: What about the “Percent Growth” value (SK-MEL-2; SK-MEL-2, Log10 Concentration −5.0) of the same compound?
A: 24%

Q: What about the “Percent Growth” value (SK-MEL-2; SK-MEL-2, Log10 Concentration −6.0) of the same compound?
A: 97%

Q: And the “Percent Growth” value (SK-MEL-2; SK-MEL-2, Log10 Concentration −7.0)?
A: 85%

Q: And the “Percent Growth” value (SK-MEL-2; SK-MEL-2, Log10 Concentration −8.0)?
A: 80%

Q: What about the CC50 (SK-MEL-2; SK-MEL-2, read-out: LC50 (the source's name)) of the same compound?
A: > 100 µM

Q: And the GI50 (SK-MEL-28; SK-MEL-28)?
A: > 100 µM

Q: And the TGI (SK-MEL-28; SK-MEL-28)?
A: >1.00E−04

Q: And the “Percent Growth” value (SK-MEL-28; SK-MEL-28, Log10 Concentration −4.0)?
A: 94%

Q: What about the “Percent Growth” value (SK-MEL-28; SK-MEL-28, Log10 Concentration −5.0) of the same compound?
A: 103%

Q: And the “Percent Growth” value (SK-MEL-28; SK-MEL-28, Log10 Concentration −6.0)?
A: 96%

Q: And the “Percent Growth” value (SK-MEL-28; SK-MEL-28, Log10 Concentration −7.0)?
A: 105%

Q: And the “Percent Growth” value (SK-MEL-28; SK-MEL-28, Log10 Concentration −8.0)?
A: 84%

Q: What about the CC50 (SK-MEL-28; SK-MEL-28, read-out: LC50 (the source's name)) of the same compound?
A: > 100 µM
